Experimental data reported in patent US12679878B2, “CRF2 receptor agonists and their use in therapy” (SANOFI, priority 2020, dated 2026).
Converted amounts (≈) assume the structure as drawn. Like-named read-outs stand apart in the source and are kept apart here. Starred links: 1 amine or outer side, 2 acyl side, 3 side chain; linkers in the order of their positions; H or OH if unused. Non-standard residues stand in square brackets, D forms with d. Residues, ends and D or L forms follow the SMILES beside them. Groups on a side chain read outwards from the residue. *: point of attachment. γGlu = O=C(O)[C@H](CCC(=O)[*:2])N[*:1]; Palmitoyl = CCCCCCCCCCCCCCCC(=O)*; Aib = CC(C)(N)C(=O)O

Key:
[1] = Solubility in buffer systems by UPLC-UV (Example 13); type: physicochemical
Procedure: Prior to performing the solubility measurements, the purity of the compounds was determined through UPLC/MS. […] Therefore, solutions from solid samples were prepared in a buffer system with a concentration of 10 mg/mL compound based on the previously determined % purity.
UPLC-UV was performed after 1 hour of gentle agitation from the supernatant, which was obtained after 15 minutes of centrifugation at 2500 RCF (relative centrifugal acceleration). The solubility was determined by the comparison of the UV peak area of a 2 μL-injection of a buffered sample diluted 1:10 with a standard curve of a reference compound with known concentration. The different UV extinction coefficients of sample and reference compound were calculated based on the different amino acid sequences and considered in the concentration calculation.

[2] = biological target: T1, human CRF2α receptor (Homo sapiens, UniProt Q13324); assay: cAMP agonism at human CRF2 α receptor in TeloHEAC cells (Example 7); type: cell-based; conditions: cAMP HTRF, TeloHEAC cells stably expressing human CRF2 α
T1 construct: expressed in transfected cells; host or cells: TeloHEAC
T1 sequence (Q13324 1-411): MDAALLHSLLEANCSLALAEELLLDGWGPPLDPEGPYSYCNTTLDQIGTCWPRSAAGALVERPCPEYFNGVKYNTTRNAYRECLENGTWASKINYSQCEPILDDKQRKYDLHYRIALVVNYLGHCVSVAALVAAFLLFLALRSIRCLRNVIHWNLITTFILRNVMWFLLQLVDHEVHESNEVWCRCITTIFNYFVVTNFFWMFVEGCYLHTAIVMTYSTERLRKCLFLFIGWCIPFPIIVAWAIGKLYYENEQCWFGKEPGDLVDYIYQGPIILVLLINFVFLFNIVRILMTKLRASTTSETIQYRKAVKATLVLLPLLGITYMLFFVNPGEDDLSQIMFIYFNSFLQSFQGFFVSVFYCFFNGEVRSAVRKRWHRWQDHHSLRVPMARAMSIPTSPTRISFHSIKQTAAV
How it was run: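 Percent activation was referenced to 1000 nM UCN2 (100%), and EC50 values taken as concentrations giving half of maximal response. The read-out was a homogeneous time-resolved fluorescence cAMP kit, fluorescence ratio 665/620 nm. Thawed cells (2000/well) saw compound for 30 min at RT in buffer with 2 mM IBMX and 0%/0.1% HSA.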

[3] = biological target: T2, CRF1R receptor (Homo sapiens, UniProt P34998); assay: cAMP activity at anti-target CRF1R, CRF1R-overexpression CHO cell line (Example 9); type: cell-based; conditions: CRF1R-overexpression CHO cell line
T2 construct: host or cells: CHO-K1 clone 2
T2 sequence (P34998 24-415): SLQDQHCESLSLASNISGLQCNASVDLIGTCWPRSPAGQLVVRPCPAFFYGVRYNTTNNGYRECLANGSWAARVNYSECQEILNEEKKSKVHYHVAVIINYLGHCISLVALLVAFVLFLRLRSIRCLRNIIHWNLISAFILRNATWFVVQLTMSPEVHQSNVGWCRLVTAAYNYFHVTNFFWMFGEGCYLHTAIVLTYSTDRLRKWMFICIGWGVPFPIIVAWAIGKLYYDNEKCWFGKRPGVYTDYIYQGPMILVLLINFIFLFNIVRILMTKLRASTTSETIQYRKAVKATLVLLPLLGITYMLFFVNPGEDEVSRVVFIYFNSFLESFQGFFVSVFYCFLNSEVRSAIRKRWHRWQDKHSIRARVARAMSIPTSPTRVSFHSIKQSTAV
How it was run: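 Using thawed CRF1R-overexpressing CHO cells at 2000 per well, compound is applied for 30 min at RT in HBSS/HEPES buffer with IBMX. Cellular cAMP content is determined via HTRF, and percent activity is calculated against 1000 nM UCN2 defined as 100%.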

[4] = pH 4.5, Solubility in Buffer B [mg/ml]
[5] = 0% HSA, read-out: EC50 [nM], 0% HSA
[6] = pH 7.4, Solubility in Buffer C [mg/ml]

CCCCCCCCCCCCCCCC(=O)N[C@@H](CCC(=O)NCCCC[C@H](NC(=O)[C@H](CC(C)C)NC(=O)[C@H](CCCCN)NC(=O)[C@@H](NC(=O)[C@@H]1CCCN1C(=O)[C@@H](NC(=O)[C@H](CC(=O)O)NC(=O)[C@H](CC(C)C)NC(=O)[C@H](CO)NC(=O)[C@H](CC(C)C)NC(=O)[C@@H](NC(=O)[C@@H](N)[C@@H](C)CC)C(C)C)C(C)C)[C@@H](C)CC)C(=O)N[C@@H](CCCCN)C(=O)N[C@H](C(=O)N[C@@H](CC(C)C)C(=O)N[C@@H](CC(C)C)C(=O)N[C@@H](CCC(=O)O)C(=O)N[C@@H](CCC(N)=O)C(=O)N[C@@H](CCC(=O)O)C(=O)N[C@@H](CCCCN)C(=O)N[C@@H](CCC(N)=O)C(=O)N[C@@H](CCC(=O)O)C(=O)N[C@@H](CCCCN)C(=O)N[C@@H](CCC(=O)O)C(=O)N[C@@H](CCCCN)C(=O)N[C@@H](CCC(N)=O)C(=O)N[C@@H](CCC(N)=O)C(=O)N[C@@H](C)C(=O)N[C@@H](CCC(=O)O)C(=O)N[C@H](C(=O)N[C@@H](CC(N)=O)C(=O)N[C@@H](C)C(=O)N[C@@H](CCC(N)=O)C(=O)N[C@H](C(=O)N[C@@H](CC(C)C)C(=O)N[C@@H](C)C(=O)N[C@@H](CCC(N)=O)C(=O)N[C@H](C(N)=O)C(C)C)[C@@H](C)CC)[C@@H](C)O)[C@@H](C)CC)C(=O)O [compound 2] (H-IVLSLDVPIKLK([γGlu-Palmitoyl])KILLEQEKQEKEKQQAETNAQILAQV-NH2; N-terminus assumed)
solubility at 1 h [1, 4]: > 7600 µg/mL
EC50 [2, 5]: 0.01 nM
EC50 ([2]; 0.1% HSA, read-out: EC50 [nM], 0.1% HSA): 0.01 nM

CCCCCCCCCCCCCCCC(=O)N[C@@H](CCC(=O)NCCCC[C@H](NC(=O)[C@H](CC(C)C)NC(=O)[C@H](CCCCN)NC(=O)[C@@H](NC(=O)[C@@H]1CCCN1C(=O)[C@@H](NC(=O)[C@H](CC(=O)O)NC(=O)[C@H](CC(C)C)NC(=O)[C@H](CO)NC(=O)[C@H](CC(C)C)NC(=O)[C@@H](NC(=O)[C@@H](N)[C@@H](C)CC)C(C)C)C(C)C)[C@@H](C)CC)C(=O)N[C@@H](CCCCN)C(=O)N[C@H](C(=O)N[C@@H](CC(C)C)C(=O)N[C@@H](CC(C)C)C(=O)N[C@@H](CCC(=O)O)C(=O)N[C@@H](CCC(N)=O)C(=O)N[C@@H](CCC(=O)O)C(=O)N[C@@H](CCCCN)C(=O)N[C@@H](CCC(N)=O)C(=O)N[C@@H](CCC(=O)O)C(=O)N[C@@H](CCCCN)C(=O)N[C@@H](CCC(=O)O)C(=O)N[C@@H](CCCCN)C(=O)N[C@@H](CCC(N)=O)C(=O)N[C@@H](CCC(N)=O)C(=O)N[C@@H](C)C(=O)N[C@@H](CCC(=O)O)C(=O)N[C@@H](CCCCN)C(=O)N[C@@H](CC(N)=O)C(=O)N[C@@H](C)C(=O)N[C@@H](CCC(N)=O)C(=O)N[C@H](C(=O)N[C@@H](CC(C)C)C(=O)N[C@@H](C)C(=O)N[C@@H](CCC(N)=O)C(=O)N[C@H](C(N)=O)C(C)C)[C@@H](C)CC)[C@@H](C)CC)C(=O)O [compound 3] (H-IVLSLDVPIKLK([γGlu-Palmitoyl])KILLEQEKQEKEKQQAEKNAQILAQV-NH2)
solubility at 1 h [1, 4]: > 8800 µg/mL
EC50 [2, 5]: 0.01 nM

CCCCCCCCCCCCCCCC(=O)N[C@@H](CCC(=O)NCCCC[C@H](NC(=O)[C@@H](NC(=O)[C@H](CCCCN)NC(=O)[C@@H](NC(=O)[C@@H]1CCCN1C(=O)[C@@H](NC(=O)[C@H](CC(=O)O)NC(=O)[C@H](CC(C)C)NC(=O)[C@H](CO)NC(=O)[C@H](CC(C)C)NC(=O)[C@@H](NC(=O)[C@@H](N)Cc1ccccc1)[C@@H](C)O)C(C)C)[C@@H](C)O)[C@@H](C)CC)C(=O)N[C@@H](CCC(N)=O)C(=O)N[C@@H](CCCCN)C(=O)N[C@@H](CC(C)C)C(=O)N[C@@H](CC(C)C)C(=O)N[C@@H](CCCCN)C(=O)N[C@@H](CCC(N)=O)C(=O)N[C@@H](CCC(=O)O)C(=O)N[C@@H](CCCCN)C(=O)N[C@@H](CCC(N)=O)C(=O)N[C@@H](CCCCN)C(=O)N[C@@H](CCCCN)C(=O)N[C@@H](CCC(N)=O)C(=O)N[C@@H](CCCNC(=N)N)C(=O)N[C@@H](CCC(N)=O)C(=O)N[C@@H](CCCCN)C(=O)N[C@@H](C)C(=O)N[C@@H](CCCCN)C(=O)N[C@H](C(=O)N[C@@H](CC(N)=O)C(=O)N[C@@H](CCCCN)C(=O)N[C@@H](CCC(N)=O)C(=O)N[C@H](C(=O)N[C@@H](CC(C)C)C(=O)N[C@@H](CCC(=O)O)C(=O)N[C@@H](CCC(N)=O)C(=O)N[C@H](C(N)=O)C(C)C)[C@@H](C)CC)[C@@H](C)O)C(=O)O [compound 10] (H-FTLSLDVPTKIK([γGlu-Palmitoyl])QKLLKQEKQKKQRQKAKTNKQILEQV-NH2)
solubility at 1 h [1, 6]: > 10000 µg/mL
EC50 ([3]; 0% HSA): > 1000 nM
Emax ([3]; read-out: Emax (%)): 10.2%

CCCCCCCCCCCCCCCC(=O)N[C@@H](CCC(=O)NCCCC[C@H](NC(=O)[C@H](CC(C)C)NC(=O)[C@H](CCCCN)NC(=O)[C@@H](NC(=O)[C@@H]1CCCN1C(=O)[C@H](NC(=O)[C@H](CC(=O)O)NC(=O)[C@H](CC(C)C)NC(=O)[C@H](CO)NC(=O)[C@H](CC(C)C)NC(=O)[C@@H](NC(=O)[C@@H](N)[C@@H](C)CC)C(C)C)C(C)C)[C@@H](C)O)C(=O)N[C@@H](CCC(N)=O)C(=O)N[C@@H](CCCCN)C(=O)N[C@@H](CC(C)C)C(=O)N[C@@H](CC(C)C)C(=O)N[C@@H](CCCCN)C(=O)N[C@@H](CCC(N)=O)C(=O)N[C@@H](CCC(=O)O)C(=O)N[C@@H](CCCNC(=N)N)C(=O)N[C@@H](CCC(N)=O)C(=O)N[C@@H](CCCNC(=N)N)C(=O)N[C@@H](CCCCN)C(=O)NC(C)(C)C(=O)N[C@@H](CCCNC(=N)N)C(=O)N[C@@H](CCC(=O)O)C(=O)N[C@@H](CCC(N)=O)C(=O)N[C@@H](C)C(=O)N[C@@H](CCC(=O)O)C(=O)N[C@@H](CCCCN)C(=O)N[C@@H](CC(N)=O)C(=O)N[C@@H](CCCCN)C(=O)N[C@@H](CCCNC(=N)N)C(=O)N[C@H](C(=O)N[C@@H](CC(C)C)C(=O)N[C@@H](CCC(=O)O)C(=O)N[C@@H](CCCNC(=N)N)C(=O)N[C@H](C(N)=O)C(C)C)[C@@H](C)CC)C(=O)O [compound 20] (H-IVLSLD[dV]PTKLK([γGlu-Palmitoyl])QKLLKQERQRK[Aib]REQAEKNKRILERV-NH2; N-terminus assumed)
solubility at 1 h ([1]; pH 4.5, Solubility in Buffer A [mg/ml]): > 9500 µg/mL
solubility at 1 h [1, 4]: > 9100 µg/mL
solubility at 1 h [1, 6]: 6800 µg/mL (≈ 1370 µM)
EC50 [2, 5]: 0.01 nM

CCCCCCCCCCCCCCCC(=O)N[C@@H](CCC(=O)NCCCC[C@H](NC(=O)[C@H](CC(C)C)NC(=O)[C@H](CCCCN)NC(=O)[C@@H](NC(=O)[C@@H]1CCCN1C(=O)[C@H](NC(=O)[C@H](CC(=O)O)NC(=O)[C@H](CC(C)C)NC(=O)[C@H](CO)NC(=O)[C@H](CC(C)C)NC(=O)[C@@H](NC(=O)[C@@H](N)[C@@H](C)CC)C(C)C)C(C)C)[C@@H](C)O)C(=O)N[C@@H](CCC(N)=O)C(=O)N[C@@H](CCCCN)C(=O)N[C@@H](CC(C)C)C(=O)N[C@@H](CC(C)C)C(=O)N[C@@H](CCCCN)C(=O)N[C@@H](CCC(N)=O)C(=O)N[C@@H](CCC(=O)O)C(=O)N[C@@H](CCCNC(=N)N)C(=O)N[C@@H](CCC(N)=O)C(=O)N[C@@H](CCCNC(=N)N)C(=O)N[C@@H](CCCCN)C(=O)N[C@@H](CCC(=O)O)C(=O)N[C@@H](CCCNC(=N)N)C(=O)NC(C)(C)C(=O)N[C@@H](CCC(N)=O)C(=O)N[C@@H](C)C(=O)N[C@@H](CCC(=O)O)C(=O)N[C@@H](CCCCN)C(=O)N[C@@H](CC(N)=O)C(=O)N[C@@H](CCCCN)C(=O)N[C@@H](CCCNC(=N)N)C(=O)N[C@H](C(=O)N[C@@H](CC(C)C)C(=O)N[C@@H](CCC(=O)O)C(=O)N[C@@H](CCCNC(=N)N)C(=O)N[C@H](C(N)=O)C(C)C)[C@@H](C)CC)C(=O)O [compound 23] (H-IVLSLD[dV]PTKLK([γGlu-Palmitoyl])QKLLKQERQRKER[Aib]QAEKNKRILERV-NH2; N-terminus assumed)
solubility at 1 h [1, 6]: 9100 µg/mL (≈ 1830 µM)
EC50 [2, 5]: 0.02 nM
